Consider 3 compounds from PMC4457528, “Identification of Novel Small Molecule Inhibitors of Oncogenic RET Kinase” (PLoS ONE, 2015).

Read-outs that look alike come from different tables or passages of the source.

Common to all, as to assay: KinomeScan kinase panel, single concentration 10 µM
Holding throughout (assay type): binding

The target of test [1] is T1, KinomeScan kinase panel (Homo sapiens, UniProt Q99759).
T1 construct: purchased DiscoveRx (KinomeScan)
T1 sequence (Q99759 1-626): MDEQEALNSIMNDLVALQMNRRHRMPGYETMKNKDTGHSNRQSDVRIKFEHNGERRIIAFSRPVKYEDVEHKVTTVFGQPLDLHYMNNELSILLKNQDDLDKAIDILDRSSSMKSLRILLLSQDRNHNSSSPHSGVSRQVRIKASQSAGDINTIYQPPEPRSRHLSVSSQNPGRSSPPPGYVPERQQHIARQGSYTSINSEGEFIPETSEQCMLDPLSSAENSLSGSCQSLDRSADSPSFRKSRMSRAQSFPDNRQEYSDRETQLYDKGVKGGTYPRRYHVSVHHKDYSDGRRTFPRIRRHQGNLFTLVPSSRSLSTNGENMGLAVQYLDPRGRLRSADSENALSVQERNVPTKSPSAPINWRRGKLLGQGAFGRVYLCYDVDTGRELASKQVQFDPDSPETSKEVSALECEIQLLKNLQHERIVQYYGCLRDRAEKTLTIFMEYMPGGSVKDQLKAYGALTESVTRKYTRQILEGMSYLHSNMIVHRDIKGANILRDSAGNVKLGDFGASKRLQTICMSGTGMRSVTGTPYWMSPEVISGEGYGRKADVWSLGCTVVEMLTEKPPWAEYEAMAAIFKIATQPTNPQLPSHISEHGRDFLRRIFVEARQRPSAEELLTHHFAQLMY
Conditions: MAP3K3, 10 µM; read-out: score (%).

Test [2] concerns the target T2, KinomeScan kinase panel (Homo sapiens, UniProt Q9H3Y6).
T2 construct: purchased DiscoveRx (KinomeScan)
Conditions: 10 µM, read-out: score (%).

The target in test [3] is T3, KinomeScan kinase panel (Homo sapiens, UniProt P49761).
T3 construct: purchased DiscoveRx (KinomeScan)
Conditions: CLK3, 10 µM; read-out: score (%).

Test [4] deals with T4, KinomeScan kinase panel (Homo sapiens, UniProt Q32MK0).
T4 construct: purchased DiscoveRx (KinomeScan)
T4 sequence (Q32MK0 1-819): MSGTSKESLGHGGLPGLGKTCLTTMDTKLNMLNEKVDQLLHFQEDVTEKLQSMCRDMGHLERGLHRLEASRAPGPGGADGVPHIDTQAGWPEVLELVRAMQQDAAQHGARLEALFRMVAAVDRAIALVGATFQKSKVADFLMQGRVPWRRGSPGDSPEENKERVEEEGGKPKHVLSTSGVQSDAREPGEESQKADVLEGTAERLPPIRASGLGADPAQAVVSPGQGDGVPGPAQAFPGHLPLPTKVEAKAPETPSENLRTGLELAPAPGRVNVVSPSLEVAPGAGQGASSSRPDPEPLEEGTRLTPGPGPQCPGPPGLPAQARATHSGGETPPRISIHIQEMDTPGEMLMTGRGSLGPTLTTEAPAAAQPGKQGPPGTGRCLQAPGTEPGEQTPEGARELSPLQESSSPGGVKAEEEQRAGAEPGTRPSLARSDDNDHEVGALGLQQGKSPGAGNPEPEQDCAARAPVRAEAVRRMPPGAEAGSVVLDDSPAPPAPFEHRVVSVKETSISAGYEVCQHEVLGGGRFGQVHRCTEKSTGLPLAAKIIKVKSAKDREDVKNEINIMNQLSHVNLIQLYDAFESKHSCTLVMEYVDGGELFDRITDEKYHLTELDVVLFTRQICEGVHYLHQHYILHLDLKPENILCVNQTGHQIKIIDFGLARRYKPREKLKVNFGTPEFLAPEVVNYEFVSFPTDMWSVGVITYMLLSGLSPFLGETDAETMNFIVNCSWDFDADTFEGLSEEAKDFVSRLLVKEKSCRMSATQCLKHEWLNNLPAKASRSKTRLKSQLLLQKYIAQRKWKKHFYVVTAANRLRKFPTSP
Conditions: MLCK, 10 µM; read-out: score (%).

The target in test [5] is T5, KinomeScan kinase panel (Homo sapiens, UniProt P00519, T315I).
T5 construct: purchased DiscoveRx (KinomeScan)
As to conditions: 10 µM, read-out: score (%).

The target of test [6] is T6, KinomeScan kinase panel (Homo sapiens, UniProt P16234).
T6 construct: purchased DiscoveRx (KinomeScan)
As to conditions: PDGFRA, 10 µM; read-out: score (%).

Test [7] addresses T7, KinomeScan kinase panel (Homo sapiens, UniProt P23458).
T7 construct: purchased DiscoveRx (KinomeScan)

For test [8], the target named is T8, KinomeScan kinase panel (Homo sapiens, UniProt P43405).
T8 construct: purchased DiscoveRx (KinomeScan)
Conditions: 10 µM.

Test [9] has as its target T9, KinomeScan kinase panel (Homo sapiens, UniProt P22455).
T9 construct: purchased DiscoveRx (KinomeScan)
As to conditions: FGFR4, 10 µM; read-out: score (%).

Test [10] deals with T10, KinomeScan kinase panel (Homo sapiens, UniProt Q04771).
T10 construct: purchased DiscoveRx (KinomeScan)
T10 sequence (Q04771 21-509): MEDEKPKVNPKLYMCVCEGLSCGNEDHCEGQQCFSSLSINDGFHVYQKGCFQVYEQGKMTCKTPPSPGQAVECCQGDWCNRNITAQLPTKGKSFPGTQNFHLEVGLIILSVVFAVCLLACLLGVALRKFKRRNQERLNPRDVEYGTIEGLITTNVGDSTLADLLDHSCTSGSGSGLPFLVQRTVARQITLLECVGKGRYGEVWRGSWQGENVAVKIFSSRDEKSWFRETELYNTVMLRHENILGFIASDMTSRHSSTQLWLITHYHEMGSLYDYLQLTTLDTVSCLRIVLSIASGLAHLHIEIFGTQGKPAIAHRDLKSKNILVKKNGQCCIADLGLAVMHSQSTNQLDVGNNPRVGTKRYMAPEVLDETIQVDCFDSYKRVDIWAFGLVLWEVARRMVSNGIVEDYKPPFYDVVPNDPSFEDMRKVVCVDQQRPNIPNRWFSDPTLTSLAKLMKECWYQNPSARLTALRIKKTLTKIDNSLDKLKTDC
Conditions: ACVR1, 10 µM; read-out: score (%).

Test [11] concerns the target T11, KinomeScan kinase panel (Homo sapiens, UniProt Q16288).
T11 construct: purchased DiscoveRx (KinomeScan)
As to conditions: 10 µM, read-out: score (%).

Test [12] concerns the target T12, KinomeScan kinase panel (Homo sapiens, UniProt P41240).
T12 construct: purchased DiscoveRx (KinomeScan)
As to conditions: CSK, 10 µM.

Setting [13] is: JAK1(JH1domain-catalytic), 10 µM.

T6 sequence (P16234 24-1089): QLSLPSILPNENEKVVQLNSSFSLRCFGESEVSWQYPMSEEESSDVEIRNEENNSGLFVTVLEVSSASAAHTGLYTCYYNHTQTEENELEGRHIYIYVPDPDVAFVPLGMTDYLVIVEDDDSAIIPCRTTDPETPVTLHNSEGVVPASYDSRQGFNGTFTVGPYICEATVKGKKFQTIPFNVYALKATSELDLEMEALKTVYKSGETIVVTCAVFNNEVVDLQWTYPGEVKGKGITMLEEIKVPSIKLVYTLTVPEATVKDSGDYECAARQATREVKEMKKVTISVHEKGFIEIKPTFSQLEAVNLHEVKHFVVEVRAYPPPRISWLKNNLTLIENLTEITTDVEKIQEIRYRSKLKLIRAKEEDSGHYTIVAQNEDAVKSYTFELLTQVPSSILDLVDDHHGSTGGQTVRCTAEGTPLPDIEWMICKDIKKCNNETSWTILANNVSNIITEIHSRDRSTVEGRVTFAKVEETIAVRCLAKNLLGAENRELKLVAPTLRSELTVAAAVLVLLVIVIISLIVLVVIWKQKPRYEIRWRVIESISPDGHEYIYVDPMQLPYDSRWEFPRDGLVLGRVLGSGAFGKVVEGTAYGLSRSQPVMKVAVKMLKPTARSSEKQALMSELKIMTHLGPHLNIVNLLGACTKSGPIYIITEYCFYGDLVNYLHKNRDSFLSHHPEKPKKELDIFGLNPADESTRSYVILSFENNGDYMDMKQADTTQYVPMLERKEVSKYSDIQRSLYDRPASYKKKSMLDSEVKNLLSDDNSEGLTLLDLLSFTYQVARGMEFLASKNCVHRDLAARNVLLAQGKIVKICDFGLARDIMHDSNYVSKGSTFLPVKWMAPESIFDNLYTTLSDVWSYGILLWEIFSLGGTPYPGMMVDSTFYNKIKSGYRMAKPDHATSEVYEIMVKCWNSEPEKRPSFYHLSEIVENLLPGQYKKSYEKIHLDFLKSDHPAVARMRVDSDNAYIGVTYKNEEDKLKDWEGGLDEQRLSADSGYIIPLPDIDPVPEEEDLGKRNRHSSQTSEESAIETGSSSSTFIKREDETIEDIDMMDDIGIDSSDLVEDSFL
T9 sequence (P22455 22-802): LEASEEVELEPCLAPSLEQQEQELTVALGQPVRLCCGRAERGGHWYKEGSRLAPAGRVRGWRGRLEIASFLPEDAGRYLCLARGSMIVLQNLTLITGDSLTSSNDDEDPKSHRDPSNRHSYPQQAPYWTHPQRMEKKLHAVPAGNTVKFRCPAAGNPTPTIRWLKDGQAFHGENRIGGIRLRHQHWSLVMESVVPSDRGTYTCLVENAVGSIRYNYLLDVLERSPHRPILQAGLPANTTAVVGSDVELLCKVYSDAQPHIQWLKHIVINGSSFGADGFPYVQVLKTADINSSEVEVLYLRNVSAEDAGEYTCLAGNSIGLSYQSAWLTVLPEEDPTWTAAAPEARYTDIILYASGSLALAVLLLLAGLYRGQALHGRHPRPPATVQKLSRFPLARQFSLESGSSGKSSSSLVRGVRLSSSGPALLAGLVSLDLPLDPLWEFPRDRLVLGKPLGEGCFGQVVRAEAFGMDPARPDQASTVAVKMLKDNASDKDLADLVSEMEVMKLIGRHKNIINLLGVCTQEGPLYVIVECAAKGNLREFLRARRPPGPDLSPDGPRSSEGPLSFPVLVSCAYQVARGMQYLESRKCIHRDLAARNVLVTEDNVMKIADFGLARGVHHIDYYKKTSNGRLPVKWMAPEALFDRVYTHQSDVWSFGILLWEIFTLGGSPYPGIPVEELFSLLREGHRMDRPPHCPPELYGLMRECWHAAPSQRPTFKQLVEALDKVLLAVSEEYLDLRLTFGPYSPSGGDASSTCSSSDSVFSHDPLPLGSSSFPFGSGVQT
T11 sequence (Q16288 32-839): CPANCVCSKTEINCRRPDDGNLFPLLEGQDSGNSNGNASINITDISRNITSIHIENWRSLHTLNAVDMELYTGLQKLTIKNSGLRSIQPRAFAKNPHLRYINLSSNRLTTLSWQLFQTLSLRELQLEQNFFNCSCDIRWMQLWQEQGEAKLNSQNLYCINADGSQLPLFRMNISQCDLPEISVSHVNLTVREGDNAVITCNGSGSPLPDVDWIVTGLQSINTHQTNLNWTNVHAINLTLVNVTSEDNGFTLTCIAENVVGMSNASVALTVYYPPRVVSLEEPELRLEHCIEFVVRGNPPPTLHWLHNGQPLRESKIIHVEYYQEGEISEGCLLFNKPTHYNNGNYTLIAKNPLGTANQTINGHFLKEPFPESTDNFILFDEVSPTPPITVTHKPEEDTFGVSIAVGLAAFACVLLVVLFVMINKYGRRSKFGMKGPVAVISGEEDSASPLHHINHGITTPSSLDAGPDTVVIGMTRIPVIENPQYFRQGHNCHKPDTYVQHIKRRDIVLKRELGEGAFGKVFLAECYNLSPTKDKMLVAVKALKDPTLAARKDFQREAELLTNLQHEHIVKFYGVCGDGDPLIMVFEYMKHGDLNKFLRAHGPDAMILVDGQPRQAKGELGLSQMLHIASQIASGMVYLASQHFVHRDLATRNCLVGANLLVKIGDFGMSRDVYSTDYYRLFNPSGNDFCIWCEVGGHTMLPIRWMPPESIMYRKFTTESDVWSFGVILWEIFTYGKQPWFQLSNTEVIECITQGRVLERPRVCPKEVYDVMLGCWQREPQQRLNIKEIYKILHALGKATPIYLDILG
T3 sequence (P49761 whole entry): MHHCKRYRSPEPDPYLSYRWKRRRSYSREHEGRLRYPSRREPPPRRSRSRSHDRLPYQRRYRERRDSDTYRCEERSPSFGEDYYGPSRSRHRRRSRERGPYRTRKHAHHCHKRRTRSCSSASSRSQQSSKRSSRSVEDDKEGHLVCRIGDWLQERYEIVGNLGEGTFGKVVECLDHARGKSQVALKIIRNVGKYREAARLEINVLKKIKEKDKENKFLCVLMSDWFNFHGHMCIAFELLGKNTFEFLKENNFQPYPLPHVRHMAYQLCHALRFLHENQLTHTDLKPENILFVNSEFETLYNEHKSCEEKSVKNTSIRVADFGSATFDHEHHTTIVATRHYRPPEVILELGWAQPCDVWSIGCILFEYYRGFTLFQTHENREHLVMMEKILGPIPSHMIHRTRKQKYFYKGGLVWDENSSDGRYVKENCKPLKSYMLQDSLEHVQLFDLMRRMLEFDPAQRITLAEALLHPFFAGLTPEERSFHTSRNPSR
T2 sequence (Q9H3Y6 whole entry): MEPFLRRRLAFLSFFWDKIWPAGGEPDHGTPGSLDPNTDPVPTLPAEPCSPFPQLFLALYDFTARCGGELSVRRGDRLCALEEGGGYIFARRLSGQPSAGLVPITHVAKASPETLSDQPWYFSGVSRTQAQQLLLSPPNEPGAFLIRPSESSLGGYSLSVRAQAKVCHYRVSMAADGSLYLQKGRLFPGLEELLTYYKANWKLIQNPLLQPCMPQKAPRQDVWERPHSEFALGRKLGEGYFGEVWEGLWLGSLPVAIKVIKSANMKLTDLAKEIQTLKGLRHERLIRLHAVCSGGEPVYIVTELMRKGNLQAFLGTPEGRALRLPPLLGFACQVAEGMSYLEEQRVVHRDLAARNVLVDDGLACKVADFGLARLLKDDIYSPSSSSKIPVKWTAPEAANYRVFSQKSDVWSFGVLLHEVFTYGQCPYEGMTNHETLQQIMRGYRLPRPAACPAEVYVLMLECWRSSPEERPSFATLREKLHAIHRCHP
T12 sequence (P41240 whole entry): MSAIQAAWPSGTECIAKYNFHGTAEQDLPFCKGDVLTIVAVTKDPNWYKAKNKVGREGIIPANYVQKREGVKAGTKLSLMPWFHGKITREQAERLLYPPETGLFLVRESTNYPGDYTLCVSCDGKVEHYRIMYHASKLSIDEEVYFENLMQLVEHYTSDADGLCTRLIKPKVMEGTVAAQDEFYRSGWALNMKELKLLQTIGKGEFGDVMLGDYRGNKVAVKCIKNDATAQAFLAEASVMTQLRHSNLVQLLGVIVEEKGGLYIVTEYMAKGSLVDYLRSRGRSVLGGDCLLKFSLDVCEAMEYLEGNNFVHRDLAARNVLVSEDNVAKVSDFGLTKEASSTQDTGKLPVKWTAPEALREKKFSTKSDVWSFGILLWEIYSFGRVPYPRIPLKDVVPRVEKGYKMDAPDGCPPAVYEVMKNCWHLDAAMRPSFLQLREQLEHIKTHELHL

Take `CCN1CCN(Cc2ccc(NC(=O)c3ccc(C)c(NC(=O)c4cncc(-c5cccs5)c4)c3)cc2C(F)(F)F)CC1` [ALW-II-41-27]: the remaining binding at 10 µM in test [1] was 0.25%; in test [2] (kinase SRMS), 2.8%; in test [3], above 30%; in [4], above 30%; in [5] (ABL1(T315I)), 0.7%; in [6], 0%. The remaining binding at 10 µM in [9] was 8.7%; in test [10], above 30%; in test [11] (kinase TRKC), 0.85%. Further, the “score (%)” value is given as “nb (Hits values higher than 30% were considered negative (no binding: nb))” in test [7], 14% in test [7] (setting [13]), 4.2% in test [8] (kinase SYK) and 0.65% in test [12].

With `CCN1CCN(Cc2ccc(NC(=O)c3ccc(C)c(/C=C/c4cnc5[nH]ccc5c4Cl)c3)cc2C(F)(F)F)CC1` [HG-6-63-01, (E)-3-(2-(4-chloro-1H-pyrrolo[2,3-b]pyridin-5-yl)vinyl)-N-(4-((4-ethylpiperazin-1-yl)methyl)-3-(trifluoromethyl)phenyl)-4-methylbenzamide], the remaining binding at 10 µM in test [1] is 4%; in test [2] (SRMS), 23%; in test [3], above 30%; in test [4] it was 5.9%; in test [5] (ABL1(T315I)), 0%; in test [6], 0%. In addition, the remaining binding at 10 µM in test [9] was 0.2%; in [10], above 30%; in test [11] (TRKC), 5.3%. Moreover, the “score (%)” value in test [7] (JAK1(Kin.Dom.1), 10 µM) is “nb (Hits values higher than 30% were considered negative (no binding: nb))”; in test [7] (JAK1(Kin.Dom.2), 10 µM), 11%; in test [8] (SYK) it was 1.8%; in test [12], 2.1%.

As for `CCN1CCN(Cc2ccc(NC(=O)c3ccc(C)c(C#Cc4cccnc4)c3)cc2C(F)(F)F)CC1` [XMD15-44], the remaining binding at 10 µM in test [1] is 1.4%; in test [2] (kinase SRMS) it was 0%; in test [3] it was above 30%; in [4], above 30%; in test [5] (ABL1(T315I)-nonphosphorylated) it was 2.8%; in [5] (ABL1(T315I)-phosphorylated), 2.6%. Further, the remaining binding at 10 µM in [6] is 0%; in [9] it was 0%; in [10], above 30%; in test [11] (kinase TRKC) it was 0.35%. In addition, the “score (%)” value in [7] (setting [13]) was 6.2%; in test [7] (JAK1(JH2domain-pseudokinase), 10 µM), “nb (Hits values higher than 30% were considered negative (no binding: nb))”; in test [8] (kinase SYK), 13%; in test [12], 0.15%.
